# Patent US4866057A, “4-substituted 10-cyanomethylenepyrrolo[4,3-e]-benzazepines” (BASF Aktiengesellschaft, priority 1987, dated 1989)
# Where two headings read alike, the source gives them in different places.
# Legend:
# [1] = test system: orientation hypermotility; experiment: Sedative action (orientation hypermotility, mouse); type: in vivo, female NMRI mice; conditions: oral; for ED50: 0.5 h, 50% decrease in orientation hypermotility vs control, measured from 30 min after dosing for 30 min, read-out: Sedative action mouse ED 50; for sedative action compared with clozapine: in words, action of reference clozapine
# Protocol: 4 to 8 groups each comprising 3 female NMRI mice receive the substances by oral administration. The orientation hypermotility induced by a new environment is determined photoelectrically 30 min after the administration of the substance for a period of 30 min.
# The ED50 is determined as the dose which brings about a decrease in the orientation hypermotility of 50% compared with placebo-treated control animals.
# [2] = test system: L-5-Hydroxytryptamine (L-5-HTP); experiment: L-5-HTP antagonism (serotonin antagonism); type: in vivo, rats; conditions: oral, rat; for ED50: 1 h before L-5-HTP (316 mg/kg i.p.), 50% mean reduction in score, read-out: Antiserotoninergic action rat ED; for antiserotoninergic action compared with clozapine: in words, action of reference clozapine
# Protocol: 2. L-5-HTP antagonism (serotonin antagonism)
# L-5-Hydroxytryptamine (L-5-HTP), a serotonin prodrug, causes in rats (316 mg/kg i.p.) a state of agitation which is characterized by signs such as head-shaking, tremor and movements of the forepaws. The animals are observed for 1 h after administration of L-5-HTP, and the signs are scored every 10 min. The test substances are administered orally 1 h before L-5-HTP; n/dose=6. The ED50 is calculated as the dose which brings about a mean reduction in the score of a control group by 50%.
# dopamine D1 receptor = biological target: T1, dopamine D1 receptor (Bos taurus, UniProt Q95136); experiment: Affinity to dopamine D1 receptor, competitive assay, 3H-SCH 23390; type: binding, bovine
# T1 construct: bovine nucleus caudatus membranes; from tissue; host or cells: bovine caudate nucleus membranes
# T1 sequence (Q95136 whole entry): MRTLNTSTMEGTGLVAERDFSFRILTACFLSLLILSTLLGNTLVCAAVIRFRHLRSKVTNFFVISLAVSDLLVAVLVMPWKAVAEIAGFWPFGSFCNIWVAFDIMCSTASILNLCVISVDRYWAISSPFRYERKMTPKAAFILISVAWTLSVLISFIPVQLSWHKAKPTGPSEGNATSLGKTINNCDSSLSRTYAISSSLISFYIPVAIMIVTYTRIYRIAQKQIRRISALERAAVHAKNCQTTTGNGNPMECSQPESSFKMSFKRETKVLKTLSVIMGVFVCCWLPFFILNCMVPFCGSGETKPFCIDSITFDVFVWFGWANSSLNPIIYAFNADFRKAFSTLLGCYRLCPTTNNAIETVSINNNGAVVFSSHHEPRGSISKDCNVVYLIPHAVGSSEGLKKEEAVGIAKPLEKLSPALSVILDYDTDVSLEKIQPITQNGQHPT
# Protocol: (§1) 4. In vitro determination of the affinity to dopamine D1 and D2 receptors by means of competitive assays
# (§2) The non-specific binding was determined using 10 μM (+)-butaclamol or using 1 μM haloperidol. After incubation at 30° C. for 60 min, the mixtures were filtered through glass fiber filters (GF/B, Whatman) and the amount of radioligand retained on the filter was determined by liquid scintillation measurement.
# dopamine D2 receptor = biological target: T2, dopamine D2 receptor (Bos taurus, UniProt P20288); experiment: Affinity to dopamine D2 receptor, competitive assay, 3H-spiperon; type: binding, bovine
# T2 construct: bovine nucleus caudatus membranes; from tissue; host or cells: bovine caudate nucleus membranes
# T2 sequence (P20288 whole entry): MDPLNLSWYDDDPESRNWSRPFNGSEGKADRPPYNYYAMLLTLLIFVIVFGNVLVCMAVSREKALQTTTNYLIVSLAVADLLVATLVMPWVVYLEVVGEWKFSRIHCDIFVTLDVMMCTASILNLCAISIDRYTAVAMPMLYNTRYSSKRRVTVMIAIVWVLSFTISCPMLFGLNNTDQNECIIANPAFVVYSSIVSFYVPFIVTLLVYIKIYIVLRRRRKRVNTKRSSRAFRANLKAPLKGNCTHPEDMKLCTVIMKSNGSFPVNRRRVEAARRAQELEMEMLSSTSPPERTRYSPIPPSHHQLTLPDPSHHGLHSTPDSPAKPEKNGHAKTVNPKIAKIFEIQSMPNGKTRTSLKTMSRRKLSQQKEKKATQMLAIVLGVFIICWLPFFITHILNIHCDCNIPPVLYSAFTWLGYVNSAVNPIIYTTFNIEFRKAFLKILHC
# Protocol: as §1, §2
# physostigmine = experiment: Anticholinergic action (protection from lethal physostigmine); type: in vivo, female NMRI mice; conditions: oral, mouse, 30 min before physostigmine 0.825 mg/kg s.c.; protects 50% from death; read-out: Anticholinergic mouse ED 50
# Protocol: 3. Anticholinergic action
# Groups of 10 female NMRI mice receive physostigmine in a lethal dose (0.825 mg/kg) subcutaneously. The test substances are administered orally 30 min before the physostigmine administration. The ED50 is determined as the dose of substance which protects 50% of the animals from death due to physostigmine.
# [3] = bovine nucleus caudatus membranes, pH 7.4, 30° C., 60 min, 1 nM radioligand, read-out: Affinity to D1 receptor, Inhibition of 3H-SCH 23 390 binding, Ki
# [4] = bovine nucleus caudatus membranes, pH 7.4, 30° C., 60 min, 0.2 nM radioligand, read-out: Affinity to D2 receptor, Inhibition of 3H-spiperon binding, Ki
SMILES,ED50 [1] [mg/kg],ED50 [2] [mg/kg],sedative action compared with clozapine [1],Ki (dopamine D1 receptor) [nM],Ki (dopamine D2 receptor) [nM],antiserotoninergic action compared with clozapine [2],ED50 (physostigmine) [mg/kg],Ki (dopamine D1 receptor; [3]) [nM],Ki (dopamine D2 receptor; [4]) [nM]
"CN1CCN(C2=Nc3cc(Cl)ccc3Nc3ccccc32)CC1 [Clozapine, clozapine, reference compound]",3.8,6.3,–,–,–,–,–,–,–
"CN1CCN(C2=Nc3ccccc3/C(=C/C#N)c3cn(C)cc32)CC1 [Example 1a, 10-Cyanomethylene-2-methyl-4-(4-methyl-1-piperazinyl)pyrrolo[4,3-e]benzazepine]",2.96,1.18,reached or exceeded,10.5,~2000,reached or exceeded,> 21.5,–,–
"CCN1CCN(C2=Nc3ccccc3C(=CC#N)c3cn(C)cc32)CC1 [Example 12, (E),(Z)-10-Cyanomethylene-2-methyl-4-(4-ethyl-1-piperazinyl)pyrrolo[4,3-e]benzazepine]",4.7,3.3,–,–,–,reached or exceeded,16.7,20.8,~2000
"CN1CCN(C2=Nc3cc(Cl)ccc3C(=CC#N)c3cn(C)cc32)CC1 [Example 3, (E),(Z)-7-Chloro-10-cyanomethylene-2-methyl-4-(4-methyl-1-piperazinyl)pyrrolo[4,3-e]benzazepine]",0.82,0.2,reached or exceeded,–,–,reached or exceeded,17.5,20,~1000
"CN1CCN(C2=Nc3cc(Cl)ccc3/C(=C/C#N)c3cn(C)cc32)CC1 [Example 3a, (E)-7-Chloro-10-cyanomethylene-2-methyl-4-(4-methyl-1-piperazinyl)pyrrolo[4,3-e]benzazepine]",0.67,0.29,–,–,–,–,–,–,–
"CN1CCN(C2=Nc3cc(Cl)ccc3C(=CC#N)c3cn(Cc4ccccc4)cc32)CC1 [Example 11, (E),(Z)-7-Chloro-2-benzyl-10-cyanomethylene-4-(4-methyl-1-piperazinyl)pyrrolo[4,3-e]benzazepine]",35,–,–,–,–,–,> 100,12.8,~1000
"CN1CCN(C2=Nc3ccccc3C(=CC#N)c3cn(Cc4ccccc4)cc32)CC1 [Example 9, (E),(Z)-10-Cyanomethylene-2-benzyl-4-(4-methyl-1-piperazinyl)pyrrolo[4,3-e]benzazepine]",29.8,46.4,–,–,–,–,> 46.4,3.4,~1000
